Consider nine compounds from PubChem BioAssay (NCI).

Structures are written as SMILES.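 Step 1: Grow cells in 96-well plates. Step 2: Expose to compound for 48 hours at 5 concentrations. Step 3: Interpolate endpoints linearly; if unreached, use highest concentration. The concentration for full growth arrest is given as TGI.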 Where only a bound is given, the exact number is not on record here.

Test systems include CAKI-1 renal; HCT-15 colon; SN12C renal; TK-10 renal; PC-3 prostate; LOX IMVI melanoma; HL-60(TB) leukemia; HS 578T breast; OVCAR-4 ovarian; RXF 393 renal; CCRF-CEM leukemia; SR leukemia; MDA-MB-435; NCI/ADR-RES ovarian; MALME-3M melanoma; NCI-H522 lung; SF-539 CNS.
Common to all, as to experiment: DTP human tumour cell line panel, 48 h

In the case of `COc1cc(/C=C2\CCC(C)C3=C2N=c2s/c(=C/c4ccc(Cl)cc4)c(=O)n2C3c2cc(OC)c(OC)c(OC)c2)cc(OC)c1OC` (centres undefined), the TGI with CAKI-1 renal, in the test on HCT-15 colon, with SN12C renal, with TK-10 renal, in the test on PC-3 prostate and in the test on LOX IMVI melanoma was more than 100 µM in each case. For the same compound, the TGI in the test on HL-60(TB) leukemia, in the test with HS 578T breast, in the test with OVCAR-4 ovarian, with RXF 393 renal, with CCRF-CEM leukemia and in the test with SR leukemia was more than 100 µM throughout. Besides, the TGI in the test on MDA-MB-435 is more than 100 µM.
For the compound `NC(=O)N/N=C\CC(O)(C(F)(F)Cl)C(F)(F)Cl`, the TGI in the test on CAKI-1 renal, in the test on NCI/ADR-RES ovarian, with HCT-15 colon, in the test with SN12C renal, in the test on TK-10 renal and with PC-3 prostate was more than 10 µM in each case. The TGI in the test with MALME-3M melanoma, in the test with LOX IMVI melanoma, with HL-60(TB) leukemia, in the test on HS 578T breast, with NCI-H522 lung and with OVCAR-4 ovarian was more than 10 µM each time. The TGI in the test with RXF 393 renal, with SF-539 CNS, in the test with CCRF-CEM leukemia, in the test on SR leukemia and in the test on MDA-MB-435 was more than 10 µM each time.
`O=C1c2cc3c(cc2CC12Cc1ccccc1C2)CCC3`: the TGI in the test with CAKI-1 renal was 75.1 µM; in the test on NCI/ADR-RES ovarian, 76.8 µM; with HCT-15 colon, more than 100 µM; with SN12C renal, more than 100 µM; in the test on TK-10 renal it was more than 100 µM; in the test with PC-3 prostate, more than 100 µM. The TGI was 71.5 µM in the test on MALME-3M melanoma; 36 µM with LOX IMVI melanoma; 81.6 µM in the test on HL-60(TB) leukemia; more than 100 µM with HS 578T breast; 93.3 µM in the test on NCI-H522 lung; more than 100 µM with OVCAR-4 ovarian. Besides, the TGI with RXF 393 renal worked out at 67.2 µM; in the test with SF-539 CNS, 93.2 µM; with CCRF-CEM leukemia it was 98.3 µM; in the test with SR leukemia, 74.7 µM; in the test with MDA-MB-435 it was 73.1 µM.
Regarding `O=C1C(Cl)C(c2ccccc2Cl)N1n1cnc2ccccc2c1=O` (centres undefined), the TGI in the test with CAKI-1 renal, in the test on HCT-15 colon, in the test with SN12C renal, in the test on TK-10 renal, with MALME-3M melanoma and with LOX IMVI melanoma was more than 100 µM in each case. Moreover, the TGI in the test with HL-60(TB) leukemia was 57.4 µM; with NCI-H522 lung, 85.2 µM; in the test on OVCAR-4 ovarian, more than 100 µM; in the test on RXF 393 renal it was 67.3 µM; with CCRF-CEM leukemia it was more than 100 µM; in the test with SR leukemia it was more than 100 µM.
For `C/C(O)=C(/C=N/C(=S)Nc1ccccc1)C(=O)Nc1ccccc1C`, the TGI in the test on CAKI-1 renal, in the test on NCI/ADR-RES ovarian, in the test with HCT-15 colon, in the test on SN12C renal, in the test with TK-10 renal and in the test with PC-3 prostate was more than 100 µM in each case. Further, the TGI in the test with MALME-3M melanoma, in the test on LOX IMVI melanoma, in the test on HL-60(TB) leukemia, with HS 578T breast, with NCI-H522 lung and in the test on OVCAR-4 ovarian was more than 100 µM in each case. The concentration for total growth inhibition (TGI) in the test with RXF 393 renal, in the test on SF-539 CNS, in the test on CCRF-CEM leukemia, in the test on SR leukemia and with MDA-MB-435 was more than 100 µM in each case.
In the case of `Cc1ccc(NC(=O)C2C3C=CC(O3)C2C(=O)O)cc1` (centres undefined), the total growth inhibition concentration (TGI) was more than 100 µM in the test on HCT-15 colon; more than 100 µM in the test with SN12C renal; more than 100 µM in the test on TK-10 renal; more than 100 µM in the test on MALME-3M melanoma; 47.4 µM in the test with LOX IMVI melanoma; more than 100 µM with HL-60(TB) leukemia. The TGI with NCI-H522 lung was more than 100 µM; in the test on OVCAR-4 ovarian, more than 100 µM; with RXF 393 renal it was 80.1 µM; in the test with SF-539 CNS, more than 100 µM; in the test on CCRF-CEM leukemia, more than 100 µM; in the test on SR leukemia, more than 100 µM.
Regarding `N#CC(NNC(=O)Cc1ccccc1)c1ccc([N+](=O)[O-])cc1` (centres undefined), the TGI in the test with HCT-15 colon, with SN12C renal, in the test on TK-10 renal, in the test with MALME-3M melanoma, with LOX IMVI melanoma and in the test on HL-60(TB) leukemia was more than 100 µM each time. The TGI in the test with NCI-H522 lung, in the test with OVCAR-4 ovarian, in the test on RXF 393 renal, in the test on SF-539 CNS, in the test on CCRF-CEM leukemia and with SR leukemia was more than 100 µM in each case.
As to `NC(=O)c1ncn(C2C=CC(CP(=O)(O)O)C2)c1N` (centres undefined), the TGI in the test with CAKI-1 renal, in the test on NCI/ADR-RES ovarian, in the test with HCT-15 colon, with SN12C renal, in the test on TK-10 renal and in the test with PC-3 prostate was more than 100 µM each time. The TGI in the test with MALME-3M melanoma, in the test with LOX IMVI melanoma, in the test with HL-60(TB) leukemia, in the test with HS 578T breast, with OVCAR-4 ovarian and in the test on RXF 393 renal was more than 100 µM each time. The TGI with SF-539 CNS, in the test with CCRF-CEM leukemia, with SR leukemia and with MDA-MB-435 was more than 100 µM throughout.
`CCc1cccc(C(C)C)c1NC(=O)/C(=N\NC(N)=O)C(C(=O)OC)c1cnc2ccccc2n1` (centres undefined): the total growth inhibition concentration (TGI) in the test with CAKI-1 renal was more than 100 µM; with HCT-15 colon it was more than 100 µM; with SN12C renal, more than 100 µM; in the test with TK-10 renal, more than 100 µM; in the test on MALME-3M melanoma, 76.4 µM; in the test with LOX IMVI melanoma, more than 100 µM. Further, the TGI in the test on HL-60(TB) leukemia is 79.6 µM; with NCI-H522 lung it was 71.9 µM; with OVCAR-4 ovarian it was more than 100 µM; in the test on RXF 393 renal, more than 100 µM; with SF-539 CNS, more than 100 µM; in the test with CCRF-CEM leukemia, more than 100 µM. This compound displayed a TGI with SR leukemia of more than 100 µM.
